Measurements taken from BindingDB's records for doi:10.3109/10799899109064686 (Center For Bio-Pharmaceutical Sciences, 1991).

Assays:
[1] = target: T1, Cysteinyl leukotriene receptor 1 (Cavia porcellus, UniProt Q2NNR5)
T1 sequence (Q2NNR5 whole entry): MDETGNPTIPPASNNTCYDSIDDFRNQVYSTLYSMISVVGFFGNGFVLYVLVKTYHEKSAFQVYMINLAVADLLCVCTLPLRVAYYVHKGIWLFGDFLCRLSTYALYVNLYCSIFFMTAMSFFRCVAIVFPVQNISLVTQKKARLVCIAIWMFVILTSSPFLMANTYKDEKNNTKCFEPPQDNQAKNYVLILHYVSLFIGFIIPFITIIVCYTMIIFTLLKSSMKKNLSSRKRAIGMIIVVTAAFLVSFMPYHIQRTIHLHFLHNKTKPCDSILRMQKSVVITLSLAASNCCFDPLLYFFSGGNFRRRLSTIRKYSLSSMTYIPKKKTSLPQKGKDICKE

[2] = target: Kappa-type opioid receptor (Rattus norvegicus, UniProt P34975)
[3] = target: 5-hydroxytryptamine receptor 1B (Rattus norvegicus, UniProt P28564)
[4] = target: Substance-P receptor (Rattus norvegicus) (UniProt P14600)
[5] = target: T2, Alpha-2C adrenergic receptor (Rattus norvegicus, UniProt P22086)
T2 sequence (P22086 whole entry): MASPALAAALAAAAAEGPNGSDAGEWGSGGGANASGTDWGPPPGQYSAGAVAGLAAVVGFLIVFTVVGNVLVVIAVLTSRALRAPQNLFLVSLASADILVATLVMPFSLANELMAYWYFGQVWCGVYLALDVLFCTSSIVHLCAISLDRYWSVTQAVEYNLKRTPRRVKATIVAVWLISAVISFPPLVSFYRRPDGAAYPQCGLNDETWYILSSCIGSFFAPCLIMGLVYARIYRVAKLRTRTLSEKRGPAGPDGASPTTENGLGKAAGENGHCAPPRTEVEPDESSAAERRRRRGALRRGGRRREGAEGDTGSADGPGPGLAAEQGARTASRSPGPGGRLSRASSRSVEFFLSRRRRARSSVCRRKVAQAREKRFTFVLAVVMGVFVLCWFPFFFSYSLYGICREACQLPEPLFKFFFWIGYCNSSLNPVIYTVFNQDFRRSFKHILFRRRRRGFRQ

Adenosine receptor A1 [6] = target: T3, Adenosine receptor A1 (Rattus norvegicus, UniProt P25099)
T3 sequence (P25099 whole entry): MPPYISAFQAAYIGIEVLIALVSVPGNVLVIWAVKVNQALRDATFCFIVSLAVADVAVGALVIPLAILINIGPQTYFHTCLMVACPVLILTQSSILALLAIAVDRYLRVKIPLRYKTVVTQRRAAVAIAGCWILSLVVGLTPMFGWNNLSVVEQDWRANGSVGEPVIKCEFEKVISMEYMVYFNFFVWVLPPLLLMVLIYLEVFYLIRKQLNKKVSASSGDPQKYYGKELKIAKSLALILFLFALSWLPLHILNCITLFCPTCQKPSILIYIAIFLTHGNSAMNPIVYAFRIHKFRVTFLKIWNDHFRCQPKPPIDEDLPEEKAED

Adenosine receptor A2a = Adenosine receptor A2a (Rattus norvegicus, UniProt P30543)
Histamine H1 receptor = Histamine H1 receptor (Rattus norvegicus, UniProt P31390)
[7] = target: Muscarinic acetylcholine receptor M3 (Rattus norvegicus, UniProt P08483)
[8] = target: T4, Gastrin/cholecystokinin type B receptor (Rattus norvegicus, UniProt P30553)
T4 sequence (P30553 whole entry): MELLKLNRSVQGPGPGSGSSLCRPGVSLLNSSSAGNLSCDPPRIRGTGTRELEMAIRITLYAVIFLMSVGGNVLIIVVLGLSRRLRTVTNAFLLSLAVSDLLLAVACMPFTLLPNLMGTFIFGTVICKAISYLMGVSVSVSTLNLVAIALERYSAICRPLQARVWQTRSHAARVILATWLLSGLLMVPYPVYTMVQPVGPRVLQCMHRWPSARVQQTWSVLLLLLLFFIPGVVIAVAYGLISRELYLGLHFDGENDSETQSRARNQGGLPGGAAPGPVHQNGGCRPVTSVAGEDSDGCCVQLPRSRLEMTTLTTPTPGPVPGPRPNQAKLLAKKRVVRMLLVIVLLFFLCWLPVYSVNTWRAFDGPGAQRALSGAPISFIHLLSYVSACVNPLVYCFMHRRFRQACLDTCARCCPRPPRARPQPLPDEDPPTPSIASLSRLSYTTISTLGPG

Adenosine receptor A1 [9] = target: T5, Adenosine receptor A1 (Bos taurus, UniProt P28190)
T5 sequence (P28190 whole entry): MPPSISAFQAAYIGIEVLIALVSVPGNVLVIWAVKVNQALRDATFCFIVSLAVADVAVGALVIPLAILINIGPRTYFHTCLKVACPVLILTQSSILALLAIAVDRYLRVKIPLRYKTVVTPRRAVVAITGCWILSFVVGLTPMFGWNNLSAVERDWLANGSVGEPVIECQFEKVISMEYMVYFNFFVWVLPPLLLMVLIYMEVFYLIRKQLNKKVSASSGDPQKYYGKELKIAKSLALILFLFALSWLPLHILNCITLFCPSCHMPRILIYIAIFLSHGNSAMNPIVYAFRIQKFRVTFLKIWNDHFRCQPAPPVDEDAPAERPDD

D(1A) dopamine receptor = D(1A) dopamine receptor (Rattus norvegicus, UniProt P18901)
Sequence of D(1A) dopamine receptor (P18901 whole entry): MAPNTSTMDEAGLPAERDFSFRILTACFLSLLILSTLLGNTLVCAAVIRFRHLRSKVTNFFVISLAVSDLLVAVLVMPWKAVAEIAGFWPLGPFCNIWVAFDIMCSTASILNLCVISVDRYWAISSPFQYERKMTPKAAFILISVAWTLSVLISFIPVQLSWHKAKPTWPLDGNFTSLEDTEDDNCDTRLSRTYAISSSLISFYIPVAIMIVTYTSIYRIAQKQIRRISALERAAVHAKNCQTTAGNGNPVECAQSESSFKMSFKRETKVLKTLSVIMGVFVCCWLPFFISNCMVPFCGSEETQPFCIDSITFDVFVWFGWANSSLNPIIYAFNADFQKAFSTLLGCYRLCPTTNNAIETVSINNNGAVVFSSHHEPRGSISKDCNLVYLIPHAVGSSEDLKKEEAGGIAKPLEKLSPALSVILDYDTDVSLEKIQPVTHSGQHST

Sequence of 5-hydroxytryptamine receptor 1B (P28564 whole entry): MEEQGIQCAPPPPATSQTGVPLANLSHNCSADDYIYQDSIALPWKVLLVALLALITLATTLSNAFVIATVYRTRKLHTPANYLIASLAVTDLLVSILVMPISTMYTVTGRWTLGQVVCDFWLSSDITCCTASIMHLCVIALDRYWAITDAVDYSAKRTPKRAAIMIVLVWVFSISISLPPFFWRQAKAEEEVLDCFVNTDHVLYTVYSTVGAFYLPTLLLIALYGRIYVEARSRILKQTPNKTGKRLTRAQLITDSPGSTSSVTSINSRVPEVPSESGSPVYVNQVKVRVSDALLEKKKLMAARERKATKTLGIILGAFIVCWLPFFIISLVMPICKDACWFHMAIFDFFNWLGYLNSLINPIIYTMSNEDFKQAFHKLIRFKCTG
Sequence of Histamine H1 receptor (P31390 whole entry): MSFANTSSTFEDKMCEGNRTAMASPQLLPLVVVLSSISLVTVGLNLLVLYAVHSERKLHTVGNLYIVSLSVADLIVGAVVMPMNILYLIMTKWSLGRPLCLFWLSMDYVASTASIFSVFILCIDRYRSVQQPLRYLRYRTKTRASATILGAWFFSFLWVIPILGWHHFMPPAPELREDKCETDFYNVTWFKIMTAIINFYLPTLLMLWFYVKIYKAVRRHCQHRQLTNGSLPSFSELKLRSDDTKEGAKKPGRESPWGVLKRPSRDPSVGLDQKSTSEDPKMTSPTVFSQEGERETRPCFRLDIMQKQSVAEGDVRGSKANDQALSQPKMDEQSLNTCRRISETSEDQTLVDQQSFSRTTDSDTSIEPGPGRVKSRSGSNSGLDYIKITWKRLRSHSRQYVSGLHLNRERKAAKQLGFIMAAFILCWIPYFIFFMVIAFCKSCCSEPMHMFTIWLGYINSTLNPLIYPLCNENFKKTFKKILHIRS
Sequence of Adenosine receptor A2a (P30543 whole entry): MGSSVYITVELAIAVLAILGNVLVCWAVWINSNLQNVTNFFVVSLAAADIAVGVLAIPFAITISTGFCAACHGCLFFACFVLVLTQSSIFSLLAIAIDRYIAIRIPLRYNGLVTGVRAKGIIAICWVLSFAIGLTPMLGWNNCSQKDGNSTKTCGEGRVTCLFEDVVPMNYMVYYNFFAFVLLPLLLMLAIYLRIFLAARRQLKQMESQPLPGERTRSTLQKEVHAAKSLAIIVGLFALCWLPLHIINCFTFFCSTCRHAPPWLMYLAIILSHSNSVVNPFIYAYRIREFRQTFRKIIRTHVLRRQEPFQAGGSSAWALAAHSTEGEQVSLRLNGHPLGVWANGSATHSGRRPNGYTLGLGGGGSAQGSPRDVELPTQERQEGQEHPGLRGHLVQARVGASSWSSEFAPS
Sequence of Muscarinic acetylcholine receptor M3 (P08483 whole entry): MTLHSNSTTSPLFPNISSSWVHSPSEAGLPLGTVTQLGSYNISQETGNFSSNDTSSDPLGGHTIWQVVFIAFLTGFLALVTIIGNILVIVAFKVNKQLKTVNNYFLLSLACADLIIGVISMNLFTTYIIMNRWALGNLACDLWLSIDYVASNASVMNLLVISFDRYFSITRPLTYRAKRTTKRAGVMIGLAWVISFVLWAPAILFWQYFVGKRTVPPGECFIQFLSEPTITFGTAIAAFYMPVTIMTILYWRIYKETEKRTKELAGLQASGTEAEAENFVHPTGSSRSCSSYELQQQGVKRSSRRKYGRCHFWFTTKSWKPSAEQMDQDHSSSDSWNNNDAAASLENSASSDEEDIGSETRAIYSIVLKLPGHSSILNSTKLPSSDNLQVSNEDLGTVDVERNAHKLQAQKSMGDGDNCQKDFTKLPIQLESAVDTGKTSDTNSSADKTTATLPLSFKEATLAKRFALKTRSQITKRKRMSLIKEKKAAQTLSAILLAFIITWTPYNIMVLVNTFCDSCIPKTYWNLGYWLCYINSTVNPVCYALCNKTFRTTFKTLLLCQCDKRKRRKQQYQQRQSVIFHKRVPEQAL
Sequence of Substance-P receptor (Rattus norvegicus) (P14600 whole entry, looked up): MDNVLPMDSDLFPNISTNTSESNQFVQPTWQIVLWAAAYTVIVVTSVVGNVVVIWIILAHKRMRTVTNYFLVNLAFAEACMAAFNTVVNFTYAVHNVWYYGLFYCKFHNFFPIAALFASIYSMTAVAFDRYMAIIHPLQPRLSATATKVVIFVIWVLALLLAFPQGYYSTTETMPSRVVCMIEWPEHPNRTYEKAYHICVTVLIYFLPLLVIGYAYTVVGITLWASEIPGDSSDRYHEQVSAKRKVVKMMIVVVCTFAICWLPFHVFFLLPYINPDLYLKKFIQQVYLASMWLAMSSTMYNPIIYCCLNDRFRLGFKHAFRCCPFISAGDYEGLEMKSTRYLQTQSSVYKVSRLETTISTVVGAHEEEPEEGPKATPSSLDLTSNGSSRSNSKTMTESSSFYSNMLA
Sequence of Kappa-type opioid receptor (P34975 whole entry): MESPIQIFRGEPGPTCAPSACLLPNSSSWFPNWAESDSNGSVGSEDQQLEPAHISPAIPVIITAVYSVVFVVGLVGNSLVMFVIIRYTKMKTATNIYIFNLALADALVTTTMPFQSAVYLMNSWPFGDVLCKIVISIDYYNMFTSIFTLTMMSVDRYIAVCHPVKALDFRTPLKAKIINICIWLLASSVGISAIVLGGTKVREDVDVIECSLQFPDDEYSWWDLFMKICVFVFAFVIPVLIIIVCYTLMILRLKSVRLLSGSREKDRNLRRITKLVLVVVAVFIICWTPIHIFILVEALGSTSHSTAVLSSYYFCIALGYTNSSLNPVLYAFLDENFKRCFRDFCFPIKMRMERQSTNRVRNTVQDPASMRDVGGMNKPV

Ki [1] | Ki [2] | Ki [3] | Ki [4] | Ki [5] | Ki (Adenosine receptor A1 [6]) | Ki (Adenosine receptor A2a) | Ki (Histamine H1 receptor) | Ki [7] | Ki [8] | Ki (Adenosine receptor A1 [9]) | Ki (D(1A) dopamine receptor) | SMILES
> 10 µM | 3.9 µM | > 10 µM | > 10 µM | 5.2 µM | 1.2 µM | 4.6 µM | 5.6 µM | 4.7 µM | > 10 µM | 0.41 µM | > 10 µM | N=C(N)NC(=O)c1nc(Cl)c(N2CCCCCC2)nc1N
> 10 µM | > 10 µM | > 10 µM | > 10 µM | 2.2 µM | 0.98 µM | 6.4 µM | 3.2 µM | 2.8 µM | > 10 µM | 0.65 µM | > 10 µM | NC(=NCc1ccccc1)NC(=O)c1nc(Cl)c(N)nc1N [NSC_108107]

SMILES | Ki [1] | Ki [2] | Ki [3] | Ki [4] | Ki [5] | Ki (Adenosine receptor A1 [6]) | Ki (Adenosine receptor A2a) | Ki (Histamine H1 receptor) | Ki [7] | Ki [8] | Ki (Adenosine receptor A1 [9]) | Ki (D(1A) dopamine receptor)
N=C(N)NC(=O)c1nc(Cl)c(N)nc1N [3,5-diamino-N-carbamimidoyl-6-chloropyrazine-2-carboxamide] | > 10 µM | > 10 µM | > 10 µM | > 10 µM | > 10 µM | 11 µM | 17 µM | > 10 µM | > 10 µM | > 10 µM | 2 µM | > 10 µM
